Results taken from patent US5637570A, “Disubstituted and trisubstituted derivatives of 2,3:4,6-di-O-isopropylidene-α-L-xylo-2-hexulofuranosonic acid having anti-cancer, anti-inflammatory and anti-proliferative activity” (Chemora Pharmochem, priority 1995, dated 1997).
Where two headings read alike, the source gives them in different places.

Columns and labels:
[1] = tested on: UACC-62 Melanoma Xenografts; experiment: Early Stage Subcutaneous Tumor Model UACC-62 Melanoma Xenografts; settings: for Drug Deaths: of 6 mice; for Opt. % T/C: >40 considered inactive
Procedure: (§3) In this in vivo model Murine or human tumor fragments (30 mg) are implanted subcutaneously into the axillary region of pathogen-free immunocompetent or immunodefficient mice, respectively, on experimental day 0. Test agent treatment is initiated either on the day which is historically associated with the start of tumor growth, or when the tumor is palpable. Tumor size and body weights are obtained approximately two times per week. Tumor weights are calculated from caliper measurements of tumor dimensions in mm using the formula for a prolate ellipsoid:
(§4) (L×W^2)/2; where L is the longer of the 2 measurements
(§5) Generally, tumor size is monitored until an upper weight limit of 500 mg is attained.

[2] = tested on: T cells (splenic T cell proliferation, co-cultured spleen cells from two strains of mice); experiment: Mixed lymphocyte response (MLR); format: cell-based; settings: Mus musculus, Anti-inflammatory/Anti-proliferative Activity
Excerpt: i Mixed lymphocyte response (MLR).
(§1) The MLR assay measures the effects of a study compound on the activation and antigen presentation of T-lymphocytes, therefore determining immunomodulatory properties. The mouse spleen cell mitogen-induced blastogenesis and the BUD-8 human fibroblast proliferation assays measure the effects of the compounds of the present invention on cellular proliferation of cells involved in the pathogenesis of autoimmune diseases. These two assays are appropriate as screens to ascertain anti-inflammatory and/or autoimmune diseases.
The MLR is a classical assay used to measure T cell function by studying the proliferation response of T cells which are activated in vitro by genetically disparate stimulator cells. This is accomplished by co-culturing spleen cells from two different strains of mice. Splenic T cell proliferation occurs as a result of cellular activation signals generated by the ongoing cellular interactions.
(§2) The detailed experimental procedure for the above-mentioned assays is described in detail in U.S. Pat. Nos. 5,360,790 and 5,367,062 incorporated herein by reference.

[3] = tested on: SK-MEL-28 Melanoma Xenografts; experiment: Early Stage SK-MEL-28 Melanoma Xenografts; settings: for Drug Deaths: of 6 mice; for Opt. % T/C: >40 considered inactive
Procedure: as §3, §4, §5

BUD-8 human fibroblast = experiment: BUD-8 human cell line fibroblast proliferation assay (FIB.); format: cell-based; settings: Anti-inflammatory/Anti-proliferative Activity
Excerpt: ii BUD-8 human cell line fibroblast proliferation assay.
as §1
The skin cell fibroblast line, BUD-8, was originally derived from the normal skin of a person and can now be obtained from the American Type Culture Collection, Rockville, Md.
as §2

P388 Murine Leukemia = P388 Murine Leukemia in vivo
Procedure: Two of the compounds of the present invention (Ic and Im) were also tested against P388 Murine Leukemia.

[4] = tested on: human tumor cell lines (approximately 60); experiment: NCI in vitro human tumor cell line screen (SRB), mean graph midpoints over all cell lines; format: cell-based
Procedure: In performing in vitro human tumor cell line assay, a total of approximately 60 human tumor cell lines derived from ten cancer types (leukemia, non-small cell lung cancer, small cell lung cancer, colon cancer, CNS cancer, melanoma, ovarian cancer, renal cancer, breast cancer and prostate cancer) were used in this assay. Compounds were tested at different concentrations against every cell line. All lines are inoculated into a series of standard 96-well microtiter plates on day 0, in the majority of cases at 20,000 cells/well, and then pre-incubated in the absence of testing agent for 24 hours. A testing agent was then added in five 10-fold dilutions and incubated for a further period of 48 hours. Following this, the cells are fixed in situ, washed, and dried. Sulforhodamine B (SRB, protein binding dye) is added, followed by further washing and drying of the stained adherent cell mass. The bound stain is solubilized and measured spectrophotometrically on an automatic plate reader.
For each compound, dose response curves for each cell line were measured with five different drug concentrations, and the concentration causing 50% cell growth inhibition (GI50), total cell growth inhibition (TGI, 0% growth), and 50% cell death (LC50, -50% growth) compared with the control was calculated. […] In these graphs, the mean logarithmic value of GI50 in all cell lines for each tested compound is used as the midpoint of that bar graph.

[5] = tested on: mouse spleen cell (T-lymphocyte); experiment: Concanavalin A (CON-A) assay, mouse spleen cell mitogen induced blastogenesis; format: cell-based; settings: Anti-inflammatory/Anti-proliferative Activity
Excerpt: iii Concanavalin A assay (the mouse spleen cell mitogen induced blastogenesis).
as §1
It is known that the induction and maintenance of most inflammatory diseases are typically due to the unrestricted activity of T-lymphocytes. Therefore, it is advantageous to identify compounds which are modulators of T-lymphocyte activity for eventual use in the regulation of inflammatory diseases, including acquired immune deficiency syndrome, psoriasis, systemic lupus, erythromatosus, and rheumatoid arthritis.
as §2

[6] = tested on: COLO 205 Colon Tumor Xenografts; experiment: Early Stage SC COLO 205 Colon Tumor Xenografts; settings: for Drug Deaths: of 6 mice; for Opt. % T/C: >40 considered inactive
Procedure: as §3, §4, §5

[7] = 130 mg/kg/dose IP QD × 5, day 3
[8] = Ic 60, 40 and 27 mg/kg/dose, Im 120, 80 and 54 mg/kg/dose
[9] = 130 mg/kg/dose IP Q4D × 3, day 7

For `CCCCCCCCCCCCOC[C@@]12O[C@@H](C)[C@@H](OCCN3CCCCC3)[C@@H]1OC(C)(C)O2` [Im, 2,3-O-Isopropylidene-6-deoxy-1-O-dodecyl-4-O-ethylpiperidinyl-α-L-xylo-2-hexulofuranose], the “Drug Deaths” value ([1]; 54 mg/kg/dose IP Q4D × 3, day 6) was 0, the “Opt. % T/C” value ([1]; 54 mg/kg/dose IP Q4D × 3, day 6, optimum on day 9) was 51% and the “Drug Deaths” value ([1]; 90 mg/kg/dose IP Q4D × 3, day 6) was 0. For the same compound, the “Opt. % T/C” value ([1]; 90 mg/kg/dose IP Q4D × 3, day 6, optimum on day 16) was 44%, the “Drug Deaths” value ([1]; 130 mg/kg/dose IP Q4D × 3, day 6) was 1 and the “Opt. % T/C” value ([1]; 130 mg/kg/dose IP Q4D × 3, day 6, optimum on day 16) was 42%. For the same compound, the IC50 [2] was < 1 µM, the “Drug Deaths” value ([3]; 54 mg/kg/dose IP QD × 5, day 3) was 1 and the “Opt. % T/C” value ([3]; 54 mg/kg/dose IP QD × 5, day 3, optimum on day 16) was 47%. The “Drug Deaths” value ([3]; 90 mg/kg/dose IP QD × 5, day 3) was 2, the “Opt. % T/C” value [3, 7] was “Toxic” and the “Drug Deaths” value [3, 7] was 5. For the same compound, the “Opt. % T/C” value ([3]; Im 90 mg/kg/dose IP QD × 5, day 3, optimum on day 9) was 49%, the IC50 (BUD-8 human fibroblast) was 3.6 µM and the antitumor activity (P388 Murine Leukemia; [8]) was “only slight antitumor activity”. For the same compound, the toxicity (P388 Murine Leukemia; [8]) was “toxic at the higher dose levels”, the maximally tolerated dose (P388 Murine Leukemia; mouse, in vivo) was “a maximally tolerated dose was not achieved” and the CC50 ([4]; Homo sapiens, 50% cell death (-50% growth), average of all cell lines, 48 h, read-out: log10 LC50 mean graph midpoint (converted)) was 50.1 µM. For the same compound, the GI50 ([4]; Homo sapiens, 50% cell growth inhibition, average of all cell lines, 48 h, read-out: GI50 (average)) was 20.2 µM, the GI50 ([4]; Homo sapiens, average of all cell lines, log10 of molar concentration, 48 h, read-out: log10 I50 (log10 GI50 mean graph midpoint) (converted)) was 9.77 µM and the IC (TGI) ([4]; Homo sapiens, total cell growth inhibition (0% growth), average of all cell lines, 48 h, read-out: log10 TGI mean graph midpoint (converted)) was 22.9 µM. The “in vitro activity in words” value ([4]; various in vitro cell lines, IC50, average GI50, mean graph pattern) was “significant activity in various in vitro cell lines”, the IC50 [5] was 7.4 µM and the “Drug Deaths” value ([6]; 54 mg/kg/dose IP Q4D × 3, day 7) was 0. For the same compound, the “Opt. % T/C” value ([6]; 54 mg/kg/dose IP Q4D × 3, day 7, optimum on day 36) was 44%, the “Drug Deaths” value ([6]; 90 mg/kg/dose IP Q4D × 3, day 7) was 0 and the “Opt. % T/C” value [6, 9] was “Toxic”. For the same compound, the “Drug Deaths” value [6, 9] was 4 and the “Opt. % T/C” value ([6]; Im 90 mg/kg/dose IP Q4D × 3, day 7, optimum on day 29) was 45%.
